In ChEMBL document CHEMBL4219169, “Sulfoximines as potent RORγ inverse agonists” (Bioorg Med Chem Lett, 2018):
pIC50, pKd: −log10 of the molar value.

Columns and labels:
[1] = molecular target: T1, Nuclear receptor ROR-alpha (Homo sapiens, UniProt P35398); test: Inverse agonist activity at RORalpha (unknown origin) expressed in human HeLa-derived HG5LN cells transfected with the GAL4 DNA-binding domain fused to the RORalpha ligand-binding domain assessed as inhibition of transcriptional activity after 18 hrs by luminescence-based luciferase reporter gene assay; type: cell-based
T1 sequence (P35398 whole entry): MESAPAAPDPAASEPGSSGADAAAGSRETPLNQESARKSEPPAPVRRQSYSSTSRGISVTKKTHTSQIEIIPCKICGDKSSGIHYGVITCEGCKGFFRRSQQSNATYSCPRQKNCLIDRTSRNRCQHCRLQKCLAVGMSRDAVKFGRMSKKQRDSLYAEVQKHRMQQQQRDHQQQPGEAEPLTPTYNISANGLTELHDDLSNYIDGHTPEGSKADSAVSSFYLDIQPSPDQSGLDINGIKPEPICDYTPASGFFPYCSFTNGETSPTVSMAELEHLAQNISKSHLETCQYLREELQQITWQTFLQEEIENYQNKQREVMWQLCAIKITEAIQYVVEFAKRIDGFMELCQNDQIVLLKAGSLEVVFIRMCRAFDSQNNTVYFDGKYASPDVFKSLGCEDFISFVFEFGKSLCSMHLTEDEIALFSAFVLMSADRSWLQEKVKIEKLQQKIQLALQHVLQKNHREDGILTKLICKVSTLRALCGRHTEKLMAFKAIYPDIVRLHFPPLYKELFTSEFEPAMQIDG

[2] = molecular target: T2, Peroxisome proliferator-activated receptor gamma (Homo sapiens, UniProt P37231)
T2 sequence (P37231 whole entry): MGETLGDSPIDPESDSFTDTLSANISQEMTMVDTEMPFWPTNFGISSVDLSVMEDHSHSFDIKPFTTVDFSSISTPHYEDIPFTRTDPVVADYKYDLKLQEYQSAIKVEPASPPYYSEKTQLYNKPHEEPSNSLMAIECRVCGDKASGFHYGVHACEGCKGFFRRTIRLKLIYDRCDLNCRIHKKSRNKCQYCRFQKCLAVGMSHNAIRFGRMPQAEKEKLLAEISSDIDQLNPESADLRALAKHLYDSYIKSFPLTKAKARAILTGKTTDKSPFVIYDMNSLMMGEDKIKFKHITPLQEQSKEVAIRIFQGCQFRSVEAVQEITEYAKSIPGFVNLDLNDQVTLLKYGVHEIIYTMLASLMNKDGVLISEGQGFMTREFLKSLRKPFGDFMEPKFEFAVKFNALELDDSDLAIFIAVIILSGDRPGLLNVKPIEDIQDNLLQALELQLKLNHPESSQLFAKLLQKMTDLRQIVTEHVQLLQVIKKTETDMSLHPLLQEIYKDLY
Description: Activity at PPARgamma (unknown origin) expressed in human HeLa-derived HG5LN cells transfected with the GAL4 DNA-binding domain fused to the PPARgamma ligand-binding domain assessed as inhibition of transcriptional activity after 18 hrs by luminescence-based luciferase reporter gene assay

[3] = test system: Salmonella typhimurium; test: Genotoxicity in Salmonella typhimurium TA100 in presence of aroclor-1254-induced rat S9 fraction by Ames test; type: toxicity, organism-based; conditions: salmonella enterica subsp. enterica serovar typhimurium
[4] = test system: TK6; test: Genotoxicity in human TK6 cells incubated for 27 hrs in absence of aroclor-1254-induced rat S9 fraction by Giemsa staining dependent optical microscopy based micronucleus test; type: toxicity, cell-based; conditions: tk6, 27 h
[5] = Fraction unbound in human plasma at 5 uM incubated for 4 hrs at 37 degC by LC-MS/MS method; type: ADME, cell-free
[6] = test system: Salmonella typhimurium; test: Genotoxicity in Salmonella typhimurium TA98 in absence of aroclor-1254-induced rat S9 fraction by Ames test; type: toxicity, organism-based; conditions: salmonella enterica subsp. enterica serovar typhimurium
[7] = test system: TK6; test: Genotoxicity in human TK6 cells incubated for 3 hrs in presence of aroclor-1254-induced rat S9 fraction followed by 27 hrs recovery period by Giemsa staining dependent optical microscopy based micronucleus test; type: toxicity, cell-based; conditions: s9, 3 h
[8] = Stability of the compound in PG/EtOH96 (3/7) solution at 40 degC after 1 month by HPLC analysis; type: physicochemical; conditions: read-out: Stability
[9] = test system: Mus musculus; test: (§1) In vivo inverse agonist activity at RORgamma in wild type BALB/c ByJ Rj mouse model of imiquimod-induced skin inflammation model assessed as attenuation of imiquimod-induced epidermal hyperplasia at 3% administered topically twice daily for 7 days dosed 2 hrs before and 6 hrs after imiquimod administration measured on day 8 by hematoxylin and eosin staining-based histological analysis; type: functional
[10] = test system: Mus musculus; test: as §1, with “0.5 to 6%” for “3%”; type: functional, organism-based
[11] = test system: Mus musculus; test: as §1, with “0.5%” for “3%”; type: functional
[12] = test system: TK6; test: Genotoxicity in human-derived p53-competent TK6 cells expressing GADD45a-dependent green fluorescent protein assessed as decrease in cell viability after 48 hrs in presence of Sprague-Dawley rat S9 fraction by FACS analysis; type: toxicity, cell-based; conditions: s9, 48 h
[13] = molecular target: T3, Oxysterols receptor LXR-beta (Homo sapiens, UniProt P55055)
T3 sequence (P55055 whole entry): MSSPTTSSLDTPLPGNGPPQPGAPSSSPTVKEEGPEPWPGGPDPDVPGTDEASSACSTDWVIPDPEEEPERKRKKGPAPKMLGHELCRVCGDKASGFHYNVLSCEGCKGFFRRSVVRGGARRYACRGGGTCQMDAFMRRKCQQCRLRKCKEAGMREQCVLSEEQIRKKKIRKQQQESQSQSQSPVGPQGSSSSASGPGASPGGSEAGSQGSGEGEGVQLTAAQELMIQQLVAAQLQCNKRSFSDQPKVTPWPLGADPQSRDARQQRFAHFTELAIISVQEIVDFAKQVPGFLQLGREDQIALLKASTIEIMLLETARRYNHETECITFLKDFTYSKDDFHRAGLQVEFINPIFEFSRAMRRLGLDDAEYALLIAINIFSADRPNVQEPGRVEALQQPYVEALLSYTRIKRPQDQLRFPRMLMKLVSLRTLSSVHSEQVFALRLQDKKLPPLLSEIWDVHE
Description: Activity at LXRbeta (unknown origin) expressed in human HeLa-derived HG5LN cells transfected with the GAL4 DNA-binding domain fused to the LXRbeta ligand-binding domain assessed as inhibition of transcriptional activity after 18 hrs by luminescence-based luciferase reporter gene assay

[14] = test system: Mus musculus; test: as §1, with “6%” for “3%”; type: functional
[15] = test system: Mus musculus; test: as §1, with “1%” for “3%”; type: functional
[16] = test system: TK6; test: Genotoxicity in human-derived p53-competent TK6 cells expressing GADD45a-dependent green fluorescent protein assessed as decrease in cell viability after 48 hrs in absence of Sprague-Dawley rat S9 fraction by FACS analysis; type: toxicity, cell-based; conditions: tk6, 48 h
[17] = Phototoxicity against human neonatal keratinocytes assessed as cell viability preincubated for 30 mins before 5 J/cm2 UV light irradiation for 15 mins followed by treatment medium replacement with fresh culture medium after 24 hrs by neutral red dye-based assay; conditions: 0.25 h

CCc1ccc(N(CC(C)C)S(=O)(=O)c2ccc(OCC3CCOCC3)c([S@@](C)(=N)=O)c2)cc1
pIC50 [1]: < 5.00 | pKd [2]: < 5.00 | Activity [3]: Non-Toxic | Activity [4]: Non-Toxic | fraction unbound at 4 h, 5 µM [5]: 0.048 | Activity [6]: Non-Toxic | Activity [7]: Non-Toxic | remaining at 730.5 h [8]: > 98% | Activity [9]: 46% | Activity [10]: Dose-dependent effect | Activity [11]: 29% | Activity [12]: Non-Toxic | pKd [13]: < 5.00 | Activity [14]: 63% | Activity [15]: 35% | Activity [16]: Non-Toxic | Activity [17]: Non-Toxic
